Where two headings read alike, the source gives them in different places.
Experiments:
[1] = target: soluble human BACE1 catalytic domain (Homo sapiens (Human), UniProt P56817); assay: BACE1 HTRF FRET Assay; type: biochemical; conditions: Ki calculated from IC50 using the Cheng-Prusoff equation; QSY7-APPswe-Eu substrate, pH 5.0
Text: Reagents: Na^+-Acetate pH 5.0; 1% Brij-35; Glycerol; Dimethyl Sulfoxide (DMSO); Recombinant human soluble BACE1 catalytic domain (>95% pure); APP Swedish mutant peptide substrate (QSY7-APP^swe-Eu): QSY7-[…]-Europium-amide (SEQ ID 1).
A homogeneous time-resolved FRET assay can be used to determine IC50 values for inhibitors of the soluble human BACE1 catalytic domain. This assay monitors the increase of 620 nm fluorescence that resulted from BACE1 cleavage of an APPswedish APP^swe mutant peptide FRET substrate (QSY7-[…]-Europium-amide (SEQ ID 1)). This substrate contains an N-terminal QSY7 moiety that serves as a quencher of the C-terminal Europium fluorophore (620 nm Em). […] Inhibition of BACE1 cleavage of the QSY7-APP^swe-Eu substrate by inhibitors is manifested as a suppression of 620 nm fluorescence.
Varying concentrations of inhibitors at 3× the final desired concentration in a volume of 10 ul are preincubated with purified human BACE1 catalytic domain (3 nM in 10 μl) for 30 minutes at 30° C. in reaction buffer containing 20 mM Na-Acetate pH 5.0, 10% glycerol, 0.1% Brij-35 and 7.5% DSMO. Reactions are initiated by addition of 10 μl of 600 nM QSY7-APP^swe-Eu substrate (200 nM final) to give a final reaction volume of 30 μl in a 384 well Nunc HTRF plate. The reactions are incubated at 30° C. for 1.5 hours. The 620 nm fluorescence is then read on a Rubystar HTRF plate reader (BMG Labtechnologies) using a 50 millisecond delay followed by a 400 millisecond acquisition time window. Inhibitor IC50 values are derived from non-linear regression analysis of concentration response curves.

[2] = target: purified human autoBACE-2 (Homo sapiens, UniProt Q9Y5Z0); assay: BACE-2 Assay (BACE-HTRF assay); type: biochemical; conditions: Ki calculated from IC50 using the Cheng-Prusoff equation, pH 5.0, read-out: BACE2 Ki
Protocol: DMSO is present at 5% final concentration in the assay. Following laser excitation of sample wells at 320 nm, the fluorescence signal at 620 nm is collected for 400 ms following a 50 μs delay on a RUBYstar HTRF plate reader (BMG Labtechnologies). Raw RFU data is normalized to maximum (1.0 nM BACE/DMSO) and minimum (no enzyme/DMSO) RFU values. […] The Ki values are calculated from the IC50 using the Cheng-Prusoff equation.

[3] = QSY7-EISEVNLDAEFC-Eu-amide substrate

purified human autoBACE-2, sequence (Q9Y5Z0 63-518 limits assumed): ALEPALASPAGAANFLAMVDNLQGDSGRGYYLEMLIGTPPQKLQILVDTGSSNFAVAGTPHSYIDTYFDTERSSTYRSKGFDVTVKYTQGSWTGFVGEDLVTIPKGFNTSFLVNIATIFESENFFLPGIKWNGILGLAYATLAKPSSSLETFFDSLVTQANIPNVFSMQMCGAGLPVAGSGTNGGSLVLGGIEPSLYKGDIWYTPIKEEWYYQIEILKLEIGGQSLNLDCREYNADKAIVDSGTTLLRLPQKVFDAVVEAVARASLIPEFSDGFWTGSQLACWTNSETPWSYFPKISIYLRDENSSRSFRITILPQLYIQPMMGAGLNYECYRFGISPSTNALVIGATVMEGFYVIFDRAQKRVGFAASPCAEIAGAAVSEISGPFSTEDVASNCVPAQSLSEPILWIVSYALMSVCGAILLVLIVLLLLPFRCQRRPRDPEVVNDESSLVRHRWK
soluble human BACE1 catalytic domain, sequence (P56817 75-416): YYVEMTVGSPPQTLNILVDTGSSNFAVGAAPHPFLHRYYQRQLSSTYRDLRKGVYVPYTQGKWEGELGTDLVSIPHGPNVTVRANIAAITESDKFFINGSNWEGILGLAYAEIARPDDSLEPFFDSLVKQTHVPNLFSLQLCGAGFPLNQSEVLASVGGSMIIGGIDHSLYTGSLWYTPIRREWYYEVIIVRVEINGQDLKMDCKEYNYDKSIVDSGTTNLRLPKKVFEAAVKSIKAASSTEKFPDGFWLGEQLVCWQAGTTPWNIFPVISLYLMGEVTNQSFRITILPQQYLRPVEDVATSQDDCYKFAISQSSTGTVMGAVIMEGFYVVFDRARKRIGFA

SMILES | Ki [1] [nM] | Ki [2, 3] [nM] | Ki ([2]; QSY7-[…]-Eu-amide substrate) [nM]
Cc1nc2ccc(C(=O)Nc3ccc(F)c([C@]4(C)CN(C)S(=O)(=O)C(C)(C)C(=N)N4)c3)cc2o1 [Example 20, N-{4-fluoro-3-[(4R)-6-imino-2,4,7,7-tetramethyl-1,1-dioxido-1,2,5-thiadiazepan-4-yl]phenyl}-2-methyl-1,3-benzoxazole-6-carboxamide] | 1140 | > 9540 | 
CN1C[C@@](C)(c2cc(NC(=O)c3cnsn3)ccc2F)NC(=N)C(C)(C)S1(=O)=O [Example 16, N-{4-fluoro-3-[(4R)-6-imino-2,4,7,7-tetramethyl-1,1-dioxido-1,2,5-thiadiazepan-4-yl]phenyl}-1,2,5-thiadiazole-3-carboxamide] | 64 | 25 | 
CN1C[C@@](C)(c2cc(NC(=O)c3ccn(C)n3)ccc2F)NC(=N)C(C)(C)S1(=O)=O [Example 18, N-{4-fluoro-3-[(4R)-6-imino-2,4,7,7-tetramethyl-1,1-dioxido-1,2,5-thiadiazepan-4-yl]phenyl}-1-methyl-1H-pyrazole-3-carboxamide] | 271 | 42 | 
CO[C@H](C)C(=O)Nc1ccc(F)c([C@]2(C)CN(C)S(=O)(=O)C(C)(C)C(=N)N2)c1 [Example 29, (2R)-N-{4-fluoro-3-[(4R)-6-imino-2,4,7,7-tetramethyl-1,1-dioxido-1,2,5-thiadiazepan-4-yl]phenyl}-2-methoxypropanamide] | 4680 | 798 | 
CN1C[C@@](C)(c2cc(NC(=O)c3ccc(OCF)cn3)ccc2F)NC(=N)C(C)(C)S1(=O)=O [Example 38, N-{4-fluoro-3-[(4R)-6-imino-2,4,7,7-tetramethyl-1,1-dioxido-1,2,5-thiadiazepan-4-yl]phenyl}-5-(fluoromethoxy)pyridine-2-carboxamide] | 37 | 46 | 
CN1C[C@@](C)(c2cc(NC(=O)c3ccc(OC(F)F)cn3)ccc2F)NC(=N)C(C)(C)S1(=O)=O [Example 4, 5-(difluoromethoxy)-N-{4-fluoro-3-[(4R)-6-imino-2,4,7,7-tetramethyl-1,1-dioxido-1,2,5-thiadiazepan-4-yl]phenyl}pyridine-2-carboxamide] | 32 | 144 | 
CN1C[C@@](C)(c2cc(NC(=O)c3cn4ccc(C#N)cc4n3)ccc2F)NC(=N)C(C)(C)S1(=O)=O [Example 17, 7-cyano-N-{4-fluoro-3-[(4R)-6-imino-2,4,7,7-tetramethyl-1,1-dioxido-1,2,5-thiadiazepan-4-yl]phenyl}imidazo[1,2-a]pyridine-2-carboxamide] | 5630 | 7490 | 
CN1C[C@@](C)(c2cc(NC(=O)CC3CC3)ccc2F)NC(=N)C(C)(C)S1(=O)=O [Example 30, 2-cyclopropyl-N-{4-fluoro-3-[(4R)-6-imino-2,4,7,7-tetramethyl-1,1-dioxido-1,2,5-thiadiazepan-4-yl]phenyl}acetamide] | > 9760 | 2190 | 
CN1C[C@@](C)(c2cc(NC(=O)c3cn(C)nc3C(F)(F)F)ccc2F)NC(=N)C(C)(C)S1(=O)=O [Example 26, N-{4-fluoro-3-[(4R)-6-imino-2,4,7,7-tetramethyl-1,1-dioxido-1,2,5-thiadiazepan-4-yl]phenyl}-1-methyl-3-(trifluoromethyl)-1H-pyrazole-4-carboxamide] | 8790 | 6510 | 
CN1C[C@@](C)(c2cc(NC(=O)c3ccc(C(F)(F)F)cn3)ccc2F)NC(=N)C(C)(C)S1(=O)=O [Example 5, N-{4-fluoro-3-[(4R)-6-imino-2,4,7,7-tetramethyl-1,1-dioxido-1,2,5--thiadiazepan-4-yl]phenyl}-5-(trifluoromethyl)pyridine-2-carboxamide] | 59 | 115 | 
COCCC(=O)Nc1ccc(F)c([C@]2(C)CN(C)S(=O)(=O)C(C)(C)C(=N)N2)c1 [Example 24, N-{4-fluoro-3-[(4R)-6-imino-2,4,7,7-tetramethyl-1,1-dioxido-1,2,5-thiadiazepan-4-yl]phenyl}-3-methoxypropanamide] | > 9760 | 4090 | 
COc1cnc(C(=O)Nc2ccc(F)c([C@]3(C)CN(C)S(=O)(=O)C(C)(C)C(=N)N3)c2)cn1 [Example 1, N-{4-fluoro-3-[(4R)-6-imino-2,4,7,7-tetramethyl-1,1-dioxido-1,2,5-thiadiazepan-4-yl]phenyl}-5-methoxypyrazine-2-carboxamide] | 37 | 102 | 
CN1C[C@@](C)(c2cc(NC(=O)C3CC3)ccc2F)NC(=N)C(C)(C)S1(=O)=O [Example 33, N-{4-fluoro-3-[(4R)-6-imino-2,4,7,7-tetramethyl-1,1-dioxido-1,2,5-thiadiazepan-4-yl]phenyl}cyclopropanecarboxamide] | 4350 | 1030 | 
CN1C[C@@](C)(c2cc(OCc3ccc(C#N)cc3)ccc2F)NC(=N)C(C)(C)S1(=O)=O [Example 40, (R)-4-((4-fluoro-3-(6-imino-2,4,7,7-tetramethyl-1,1-dioxido-1,2,5-thiadiazepan-4-yl)phenoxy)methyl)benzonitrile] | 651 |  | 4050
CN1C[C@@](C)(c2cc(NC(=O)c3ncc(C(F)(F)F)cn3)ccc2F)NC(=N)C(C)(C)S1(=O)=O [Example 31, N-{4-fluoro-3-[(4R)-6-imino-2,4,7,7-tetramethyl-1,1-dioxido-1,2,5-thiadiazepan-4-yl]phenyl}-5-(trifluoromethyl)pyrimidine-2-carboxamide] | 189 | 202 | 
Cc1cc(C(=O)Nc2ccc(F)c([C@]3(C)CN(C)S(=O)(=O)C(C)(C)C(=N)N3)c2)no1 [Example 19, N-{4-fluoro-3-[(4R)-6-imino-2,4,7,7-tetramethyl-1,1-dioxido-1,2,5-thiadiazepan-4-yl]phenyl}-5-methylisoxazole-3-carboxamide] | 1360 | 347 | 
CN1C[C@@](C)(c2cc(Nc3nccc4cc(Br)cnc34)ccc2F)NC(=N)C(C)(C)S1(=O)=O [Example 42, (R)-4-(5-((3-bromo-1,7-naphthyridin-8-yl)amino)-2-fluorophenyl)-6-imino-2,4,7,7-tetramethyl-1,2,5-thiadiazepane 1,1-dioxide] | 18 |  | 9
CN1C[C@@](C)(c2cc(NC(=O)c3cnc(C(F)(F)F)cn3)ccc2F)NC(=N)C(C)(C)S1(=O)=O [Example 37, N-{4-fluoro-3-[(4R)-6-imino-2,4,7,7-tetramethyl-1,1-dioxido-1,2,5-thiadiazepan-4-yl]phenyl}-5-(trifluoromethyl)pyrazine-2-carboxamide] | 153 | 361 | 
CN1C[C@@](C)(c2cc(NC(=O)c3ccccn3)ccc2F)NC(=N)C(C)(C)S1(=O)=O [Example 21, N-{4-fluoro-3-[(4R)-6-imino-2,4,7,7-tetramethyl-1,1-dioxido-1,2,5-thiadiazepan-4-yl]phenyl}pyridine-2-carboxamide] | 228 | 43 | 
CN1C[C@@](C)(c2cc(NC(=O)c3ncc(Cl)cc3F)ccc2F)NC(=N)C(C)(C)S1(=O)=O [Example 23, 5-chloro-3-fluoro-N-{4-fluoro-3-[(4R)-6-imino-2,4,7,7-tetramethyl-1,1-dioxido-1,2,5-thiadiazepan-4-yl]phenyl}pyridine-2-carboxamide] | 21 | 6.4 | 
C#CCOc1cnc(C(=O)Nc2ccc(F)c([C@]3(C)CN(C)S(=O)(=O)C(C)(C)C(=N)N3)c2)cn1 [Example 39, N-{4-fluoro-3-[(4R)-6-imino-2,4,7,7-tetramethyl-1,1-dioxido-1,2,5-thiadiazepan-4-yl]phenyl}-5-(prop-2-yn-1-yloxy)pyrazine-2-carboxamide] | 2.3 | 34.3 | 
